Measured values as given in patent US20170100396A1 (priority 2015, published 2017).

test system: influenza A virus (IAV) A/Aichi/2/68 (H3N2); test: microbe, parasite or virus in culture; format: cell-based, influenza A virus in MDCK cells; details: not given

Compound	CPE (result in words)
COC(=O)[C@H]1CC[C@H](NC(=O)[C@H](NC(=O)c2c[nH]c3ncc(C4CC4)nc23)C2CCCCC2)CC1	Active

same assay, conditions: Influenza A virus, H3N2, MDCK, 48 h, read-out: CPE IC50

Compound	IC50 [µM]
O=C(N[C@@H](C(=O)NCc1cc(Cl)cc(Cl)c1)C1CC1)c1c[nH]c2ncc(C3CC3)nc12	> 25
CCCNC(=O)c1c[nH]c2ncc(C(C)C)nc12	18.1
O=C(N[C@@H](C(=O)N1CCC2(CCN(Cc3ccccc3)C2=O)C1)C1CC1)c1c[nH]c2ncc(C3CC3)nc12 (some centres unmarked)	27
O=C(N[C@@H](C(=O)NCC(=O)N1CCCC1)C1CC1)c1c[nH]c2ncc(C3CC3)nc12	> 100
CC(C)C[C@@H](NC(=O)c1c[nH]c2ncc(C3CC3)nc12)C(=O)NCC(=O)NC1CCCC1	> 100
O=C(N[C@@H](C(=O)NCC(=O)N1CCOCC1)C1CC1)c1c[nH]c2ncc(C3CC3)nc12	> 100
O=C(N[C@@H](C(=O)N1CC2(COC2)C1)C1CC1)c1c[nH]c2ncc(C3CC3)nc12	> 100
O=C(N[C@@H](C(=O)NCc1ccccc1Cl)C1CC1)c1c[nH]c2ncc(C3CC3)nc12	8.8
CC(C)c1cnc2[nH]cc(C(=O)NCC(F)(F)F)c2n1	> 50
COc1ccc(C(C#N)NC(=O)[C@H](NC(=O)c2c[nH]c3ncc(C4CC4)nc23)C2CC2)cc1 (some centres unmarked)	4.9
O=C(N[C@@H](C(=O)Nc1ccccc1)C1CC1)c1c[nH]c2ncc(C3CC3)nc12	> 100
O=C(N[C@@H](C(=O)NCc1cccc(Cl)c1)C1CC1)c1c[nH]c2ncc(C3CC3)nc12	7.3
CC(C)C[C@@H](NC(=O)c1c[nH]c2ncc(C3CC3)nc12)C(=O)N1CC2(CN(C(=O)OC(C)(C)C)C2)C1	> 100
O=C(N[C@@H](C(=O)NCc1ccc(F)c(F)c1)C1CC1)c1c[nH]c2ncc(C3CC3)nc12	14.8
O=C(N[C@@H](C(=O)N1CCCCC1)C1CC1)c1c[nH]c2ncc(C3CC3)nc12	> 100
O=C(N[C@@H](C(=O)N1CC2(CCC2)C1)C1CC1)c1c[nH]c2ncc(C3CC3)nc12	> 100
CS(=O)(=O)CCNC(=O)c1c[nH]c2ncc(-c3ccccc3Cl)nc12	> 100
O=C(N[C@@H](C(=O)NCc1ccc(Cl)cc1)C1CC1)c1c[nH]c2ncc(C3CC3)nc12	2.99
O=C(N[C@@H](C(=O)NC1CCCc2ccccc21)C1CC1)c1c[nH]c2ncc(C3CC3)nc12 (some centres unmarked)	> 100
O=C(N[C@@H](C(=O)NCc1ccc(C(F)(F)F)cc1)C1CC1)c1c[nH]c2ncc(C3CC3)nc12	4.6
CC(C)C[C@@H](NC(=O)c1c[nH]c2ncc(C3CC3)nc12)C(=O)NC1CCCc2ccccc21 (some centres unmarked)	> 100
O=C(N[C@@H](C(=O)NCCC(=O)N1CCS(=O)(=O)CC1)C1CC1)c1c[nH]c2ncc(C3CC3)nc12	> 100
CC(C)C[C@@H](NC(=O)c1c[nH]c2ncc(C3CC3)nc12)C(=O)NCCC(=O)NC1CCCC1	> 100
O=C(N[C@@H](C(=O)N1CCC[C@H](C(=O)N2CCCCC2)C1)C1CC1)c1c[nH]c2ncc(C3CC3)nc12	33.1

Compound	IC50 [µM]
O=C(N[C@@H](C(=O)N1CCC[C@H](C(=O)N2CCOCC2)C1)C1CC1)c1c[nH]c2ncc(C3CC3)nc12	> 100
CC(C)C[C@@H](NC(=O)c1c[nH]c2ncc(C3CC3)nc12)C(=O)NCC(=O)NCc1ccccn1	> 100
O=C(N[C@@H](C(=O)NCc1ccccc1)C1CC1)c1c[nH]c2ncc(C3CC3)nc12	18.2
CC(C)C[C@@H](NC(=O)c1c[nH]c2ncc(C3CC3)nc12)C(=O)N1CCCC1	> 100
CC(C)C[C@@H](NC(=O)c1c[nH]c2ncc(C3CC3)nc12)C(=O)NCCC(=O)NCc1ccccn1	> 100
O=C(N[C@@H](C(=O)NCc1cccc(F)c1)C1CC1)c1c[nH]c2ncc(C3CC3)nc12	9.2
CC1(CNC(=O)c2c[nH]c3ncc(-c4ccccc4Cl)nc23)CCC(=O)N1 (centres unmarked)	> 100
CC(C)C[C@@H](NC(=O)c1c[nH]c2ncc(C3CC3)nc12)C(=O)NCCC(=O)NCc1ccccc1	> 100
N#CC(NC(=O)[C@H](NC(=O)c1c[nH]c2ncc(C3CC3)nc12)C1CC1)c1ccc(C(F)(F)F)cc1 (some centres unmarked)	> 10
CC(C)c1cnc2[nH]cc(C(=O)NC3CCOC3(C)C)c2n1 (centres unmarked)	> 100
O=C(NCC(=O)N1CCCC1)c1c[nH]c2ncc(Br)nc12	> 100
O=C(N[C@@H](C(=O)NCCC(=O)N1CCOCC1)C1CC1)c1c[nH]c2ncc(C3CC3)nc12	> 100
CC(C)c1cnc2[nH]cc(C(=O)NC(C)C(C)(C)O)c2n1 (centres unmarked)	12.2
COc1ccc(CCNC(=O)[C@H](NC(=O)c2c[nH]c3ncc(C4CC4)nc23)C2CC2)cc1	> 100
COCCN(CCOC)C(=O)c1c[nH]c2ncc(C(C)C)nc12	> 100
CCN(C)C(=O)c1c[nH]c2ncc(C(C)C)nc12	> 100
CC(C)c1cnc2[nH]cc(C(=O)NCCCN3CCOCC3)c2n1	> 100
COC(=O)C1CC2(CC(NC(=O)[C@@H](CC(C)C)NC(=O)c3c[nH]c4ncc(C5CC5)nc34)C2)C1 (some centres unmarked)	> 100
O=C(N[C@@H](C(=O)N1CCN(C2CCOCC2)CC1)C1CC1)c1c[nH]c2ncc(C3CC3)nc12	> 100
O=C(N[C@@H](C(=O)N1CCCC1)C1CC1)c1c[nH]c2ncc(C3CC3)nc12	> 25
O=C(N[C@@H](C(=O)N1CCC[C@@H](C(=O)N2CCCCC2)C1)C1CC1)c1c[nH]c2ncc(C3CC3)nc12	> 100
CC(C)C[C@@H](NC(=O)c1c[nH]c2ncc(C3CC3)nc12)C(=O)N1CC2(CNC2)C1	> 100
O=C(N[C@@H](C(=O)NCc1ccc(OC(F)(F)F)cc1)C1CC1)c1c[nH]c2ncc(C3CC3)nc12	5.4
CC(C)C[C@@H](NC(=O)c1c[nH]c2ncc(C3CC3)nc12)C(=O)NCCC(=O)Nc1ccccc1	> 100

Compound	IC50 [µM]
O=C(N[C@@H](C(=O)NCCc1ccc(Cl)cc1)C1CC1)c1c[nH]c2ncc(C3CC3)nc12	> 100
O=C(N[C@@H](C(=O)N1CCOCC1)C1CC1)c1c[nH]c2ncc(C3CC3)nc12	> 100
O=C(N[C@@H](C(=O)NCCC(=O)N1CCCCC1)C1CC1)c1c[nH]c2ncc(C3CC3)nc12	> 100
O=C(N[C@@H](C(=O)N1CCC[C@H](C(=O)N2CCCC2)C1)C1CC1)c1c[nH]c2ncc(C3CC3)nc12	> 100
CC(C)c1cnc2[nH]cc(C(=O)N3CCC(F)(F)CC3)c2n1	> 100
O=C(N[C@@H](C(=O)NCc1ccncc1)C1CC1)c1c[nH]c2ncc(C3CC3)nc12	40.4
CC(C)NC(=O)c1c[nH]c2ncc(-c3ccccc3C(F)(F)F)nc12	> 100
O=C(N[C@H](C(=O)N1CCCC1)C1CC1)c1c[nH]c2ncc(C3CC3)nc12	> 25
Cc1ccc(CNC(=O)c2c[nH]c3ncc(C(C)C)nc23)nn1	139
O=C(N[C@@H](C(=O)NCc1ccc(Cl)c(Cl)c1)C1CC1)c1c[nH]c2ncc(C3CC3)nc12	4.7
CC(C)C[C@@H](NC(=O)c1c[nH]c2ncc(C3CC3)nc12)C(=O)NCC(=O)NCc1ccccc1	> 100
CC(C)(NC(=O)c1c[nH]c2ncc(C3CC3)nc12)C(=O)N1CCCC1	> 100
O=C(N[C@@H](C(=O)NCCC(=O)N1CCCC1)C1CC1)c1c[nH]c2ncc(C3CC3)nc12	> 100
COc1ccc(NC(=O)[C@H](NC(=O)c2c[nH]c3ncc(C4CC4)nc23)C2CC2)cc1	> 100
CC(C)c1cnc2[nH]cc(C(=O)NC3(C#N)CC3)c2n1	34.7
O=C(N[C@@H](C(=O)NCCc1ccccc1)C1CC1)c1c[nH]c2ncc(C3CC3)nc12	> 100
CC(C)c1cnc2[nH]cc(C(=O)NC3CCCCC3O)c2n1 (centres unmarked)	11.3
O=C(N[C@@H](C(=O)N1CCC[C@@H](C(=O)N2CCOCC2)C1)C1CC1)c1c[nH]c2ncc(C3CC3)nc12	> 100
CN1CCN(C(=O)CCNC(=O)[C@H](NC(=O)c2c[nH]c3ncc(C4CC4)nc23)C2CC2)CC1	> 100
O=C(N[C@@H](C(=O)N1CC(F)(F)C1)C1CC1)c1c[nH]c2ncc(C3CC3)nc12	> 100
O=C(N[C@@H](C(=O)N1CCN(Cc2ccccc2)CC1)C1CC1)c1c[nH]c2ncc(C3CC3)nc12	41.9
O=C(N[C@@H](C(=O)NCc1ccccc1F)C1CC1)c1c[nH]c2ncc(C3CC3)nc12	14.6

same assay, conditions: Influenza A virus, H3N2, read-out: % CPE reduction

Compound	inhibition at 2.5 µM [%]	inhibition at 50 µM [%]	inhibition at 5 µM [%]	inhibition at 25 µM [%]
COc1ccc(C(C)(C)CNC(=O)c2c[nH]c3ncc(C4CC4)nc23)cc1OC	15.8	–	–	–
O=C(O)c1cccc(CNC(=O)[C@H](NC(=O)c2c[nH]c3ncc(C4CC4)nc23)C2CC2)c1	–	-0.2	–	–
NC(=O)C(NC(=O)c1c[nH]c2ncc(C3CC3)nc12)c1ccc(OC(F)(F)F)cc1 (centres unmarked)	–	–	-12.9	–
COC(=O)C1CCN(C(=O)[C@H](NC(=O)c2c[nH]c3ncc(C4CC4)nc23)C2CCCCC2)C1 (some centres unmarked)	–	–	-8.1	–
CC(NC(=O)[C@H](NC(=O)c1c[nH]c2ncc(C3CC3)nc12)C1CC1)c1ccccc1 (some centres unmarked)	–	–	2.7	–
O=C(N[C@@H](C(=O)N1CC[C@@H](O)C1)C1CCCCC1)c1c[nH]c2ncc(C3CC3)nc12	–	-14.8	–	–
O=C(N[C@@H](C(=O)NCc1ccncc1)C1CCCCC1)c1c[nH]c2ncc(C3CC3)nc12	–	-8.3	–	–
O=C(N[C@@H](C(=O)N1CCC(C(=O)O)C1)C1CCCCC1)c1c[nH]c2ncc(C3CC3)nc12 (some centres unmarked)	–	–	11.6	–
CC(C)C[C@@H](NC(=O)c1c[nH]c2ncc(C3CC3)nc12)C(=O)NCC(=O)Nc1ccccc1	–	25	–	–
O=C(N[C@@H](C(=O)NCc1cccnc1)C1CC1)c1c[nH]c2ncc(C3CC3)nc12	–	6.6	–	–
CC(C)C(NC(=O)c1c[nH]c2ncc(C3CC3)nc12)C(N)=O (centres unmarked)	–	–	-10.7	–
O=C(N[C@@H](C(=O)N1CCC(CO)C1)C1CCCCC1)c1c[nH]c2ncc(C3CC3)nc12 (some centres unmarked)	–	-10.1	–	–
CC(C)NC(=O)c1c[nH]c2ncc(-c3ccc(C4(C(=O)O)CC4)cc3)nc12	–	–	–	-8.7
O=C(N[C@@H](C(=O)NCc1ccncn1)C1CCCCC1)c1c[nH]c2ncc(C3CC3)nc12	–	-2.2	–	–
O=C(N[C@@H](C(=O)NCc1ccccc1)C1CCCCC1)c1c[nH]c2ncc(C3CC3)nc12	–	–	-2.2	–
O=C(N[C@@H](C(=O)NCC1CCOCC1)C1CCCCC1)c1c[nH]c2ncc(C3CC3)nc12	–	–	20.5	–
O=C(NCC(=O)N1CCCC1)c1c[nH]c2ncc(C3CC3)nc12	–	36.2	–	–
O=C(N[C@@H](C(=O)N[C@H]1CC[C@H](C(=O)O)CC1)C1CCCCC1)c1c[nH]c2ncc(C3CC3)nc12	–	14.8	–	–
